Experiments:
[1] = test system: blackgrass; test: Test C postemergence; assay type: in vivo, Alopecurus myosuroides; details: 10 days, 0 to 100 scale (0 no effect, 100 complete control)
Summary of the method: (§1)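 Visual injury ratings on a 0–100 scale (100 = complete control) were made against untreated controls 10 days after treatment in the greenhouse. Compounds, formulated with surfactant in non-phytotoxic solvent, were sprayed on soil preemergence or onto one- to two-leaf plants 2–10 cm tall postemergence.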

[2] = test system: oat, wild; test: Test C preemergence; assay type: in vivo, Avena fatua
Summary of the method: as §1

[3] = test system: ragweed; test: Test C preemergence; assay type: in vivo, Ambrosia artemisiifolia
Summary of the method: as §1

[4] = test system: corn; test: Test C postemergence; assay type: in vivo, Zea mays; details: 10 days, 0 to 100 scale (0 no effect, 100 complete control)
Summary of the method: as §1

[5] = test system: sedge, umbrella; test: Test D flooded paddy test; assay type: in vivo, Cyperus difformis; details: 250 g ai/ha, applied to paddy water, visual rating after 13 to 14 days, scale 0 to 100 (0 no effect, 100 complete control)
Summary of the method: (§2)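 Compounds go straight into paddy water over 2-leaf plants in pots flooded to 3 cm. Greenhouse holding lasts 13 to 14 days. Injury is scored by eye against controls from 0 (none) to 100 (complete control).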

[6] = test system: barnyardgrass; test: Test D flooded paddy test; assay type: in vivo, Echinochloa crus-galli; details: 250 g ai/ha, applied to paddy water, visual rating after 13 to 14 days, scale 0 to 100 (0 no effect, 100 complete control)
Summary of the method: as §2

[7] = test system: galium; test: Test C postemergence; assay type: in vivo, Galium aparine; details: 10 days, 0 to 100 scale (0 no effect, 100 complete control)
Summary of the method: as §1

[8] = test system: ragweed; test: Test C postemergence; assay type: in vivo, Ambrosia artemisiifolia; details: 10 days, 0 to 100 scale (0 no effect, 100 complete control)
Summary of the method: as §1

[9] = test system: soybean; test: Test C postemergence; assay type: in vivo, Glycine max; details: 10 days, 0 to 100 scale (0 no effect, 100 complete control)
Summary of the method: as §1

[10] = test system: kochia; test: Test C preemergence; assay type: in vivo, Bassia scoparia
Summary of the method: as §1

[11] = test system: oat, wild; test: Test C postemergence; assay type: in vivo, Avena fatua; details: 10 days, 0 to 100 scale (0 no effect, 100 complete control)
Summary of the method: as §1

[12] = test system: wheat; test: Test C preemergence; assay type: in vivo, Triticum aestivum
Summary of the method: as §1

[13] = test system: rice; test: Test D flooded paddy test; assay type: in vivo, Oryza sativa; details: 250 g ai/ha, applied to paddy water, visual rating after 13 to 14 days, scale 0 to 100 (0 no effect, 100 complete control)
Summary of the method: as §2

[14] = test system: barnyardgrass; test: Test C postemergence; assay type: in vivo, Echinochloa crusgalli; details: 10 days, 0 to 100 scale (0 no effect, 100 complete control)
Summary of the method: as §1

[15] = test system: barnyardgrass; test: Test C preemergence; assay type: in vivo, Echinochloa crusgalli
Summary of the method: as §1

[16] = test system: kochia; test: Test C postemergence; assay type: in vivo, Bassia scoparia; details: 10 days, 0 to 100 scale (0 no effect, 100 complete control)
Summary of the method: as §1

[17] = test system: green foxtail; test: Test C postemergence; assay type: in vivo, Setaria viridis; details: 10 days, 0 to 100 scale (0 no effect, 100 complete control)
Summary of the method: as §1

[18] = test system: corn; test: Test C preemergence; assay type: in vivo, Zea mays
Summary of the method: as §1

[19] = test system: pigweed, palmer; test: Test C postemergence; assay type: in vivo, Amaranthus palmeri; details: 10 days, 0 to 100 scale (0 no effect, 100 complete control)
Summary of the method: as §1

[20] = test system: wheat; test: Test C postemergence; assay type: in vivo, Triticum aestivum; details: 10 days, 0 to 100 scale (0 no effect, 100 complete control)
Summary of the method: as §1

[21] = test system: ducksalad; test: Test D flooded paddy test; assay type: in vivo, Heteranthera limosa; details: 250 g ai/ha, applied to paddy water, visual rating after 13 to 14 days, scale 0 to 100 (0 no effect, 100 complete control)
Summary of the method: as §2

[22] = test system: ryegrass, Italian; test: Test C preemergence; assay type: in vivo, Lolium multiflorum
Summary of the method: as §1

[23] = test system: green foxtail; test: Test C preemergence; assay type: in vivo, Setaria viridis
Summary of the method: as §1

[24] = test system: blackgrass; test: Test C preemergence; assay type: in vivo, Alopecurus myosuroides
Summary of the method: as §1

[25] = test system: pigweed, palmer; test: Test C preemergence; assay type: in vivo, Amaranthus palmeri
Summary of the method: as §1

[26] = test system: soybean; test: Test C preemergence; assay type: in vivo, Glycine max
Summary of the method: as §1

[27] = test system: horseweed; test: Test C postemergence; assay type: in vivo, Erigeron canadensis; details: 10 days, 0 to 100 scale (0 no effect, 100 complete control)
Summary of the method: as §1

[28] = test system: ryegrass, Italian; test: Test C postemergence; assay type: in vivo, Lolium multiflorum; details: 10 days, 0 to 100 scale (0 no effect, 100 complete control)
Summary of the method: as §1

[29] = 500 g ai/ha, preemergence, 0 to 100 scale (0 no effect, 100 complete control)
[30] = Preemergence, 125 g ai/ha, 0 to 100 scale, 0 no effect, 100 complete control

CC(C)c1ncn(-c2ccc([S+](C)[O-])c(C(=O)N3C[C@H](C)Oc4c(Cl)cccc43)c2)n1 (stereo partly shown) [Compound 394]
15: Plant response rating, Barnyardgrass (Flood) [6]
80: Wheat plant response rating [12, 29] | Plant response rating, Pigweed, Palmer ([19]; 500 g ai/ha, postemergence) | Plant response rating, Pigweed, Palmer ([19]; Postemergence, 125 g ai/ha)
90: Oat, Wild plant response rating [2, 29] | Plant response rating, Kochia [10, 30] | Plant response rating, Kochia ([16]; 500 g ai/ha, postemergence) | Plant response rating, Kochia ([16]; Postemergence, 125 g ai/ha) | Plant response rating, Foxtail, Green ([17]; 500 g ai/ha, postemergence) | Ryegrass, Italian plant response rating [22, 29] | Blackgrass plant response rating [24, 29] | Plant response rating, Ryegrass, Italian ([28]; 500 g ai/ha, postemergence)
50: Plant response rating, Blackgrass ([1]; Postemergence, 125 g ai/ha) | Ragweed plant response rating [3, 29] | Plant response rating, Corn ([4]; 500 g ai/ha, postemergence) | Plant response rating, Oat, Wild ([11]; Postemergence, 125 g ai/ha) | Plant response rating, Barnyardgrass ([14]; Postemergence, 125 g ai/ha) | Plant response rating, Wheat ([20]; 500 g ai/ha, postemergence) | Plant response rating, Ryegrass, Italian ([28]; Postemergence, 125 g ai/ha)
30: Plant response rating, Oat, Wild [2, 30] | Plant response rating, Foxtail, Green ([17]; Postemergence, 125 g ai/ha) | Corn plant response rating [18, 29] | Plant response rating, Wheat ([20]; Postemergence, 125 g ai/ha) | Plant response rating, Blackgrass [24, 30]
70: Plant response rating, Blackgrass ([1]; 500 g ai/ha, postemergence) | Plant response rating, Ragweed ([8]; 500 g ai/ha, postemergence) | Plant response rating, Ragweed ([8]; Postemergence, 125 g ai/ha) | Plant response rating, Oat, Wild ([11]; 500 g ai/ha, postemergence) | Plant response rating, Barnyardgrass ([14]; 500 g ai/ha, postemergence) | Plant response rating, Barnyardgrass [15, 30]
60: Plant response rating, Ryegrass, Italian [22, 30]
20: Plant response rating, Corn ([4]; Postemergence, 125 g ai/ha) | Plant response rating, Wheat [12, 30] | Plant response rating, Corn [18, 30] | Plant response rating, Soybean [26, 30] | Plant response rating, Horseweed ([27]; 500 g ai/ha, postemergence)
0: Plant response rating, Ragweed [3, 30] | Plant response rating, Sedge, Umbrella (Flood) [5] | Plant response rating, Rice (Flood) [13] | Plant response rating, Horseweed ([27]; Postemergence, 125 g ai/ha)
10: Plant response rating, Ducksalad (Flood) [21]
100: Plant response rating, Galium ([7]; 500 g ai/ha, postemergence) | Plant response rating, Galium ([7]; Postemergence, 125 g ai/ha) | Plant response rating, Soybean ([9]; 500 g ai/ha, postemergence) | Plant response rating, Soybean ([9]; Postemergence, 125 g ai/ha) | Kochia plant response rating [10, 29] | Barnyardgrass plant response rating [15, 29] | Foxtail, Green plant response rating [23, 29] | Plant response rating, Foxtail, Green [23, 30] | Pigweed, Palmer plant response rating [25, 29] | Plant response rating, Pigweed, Palmer [25, 30] | Soybean plant response rating [26, 29]

Reference: patent US20260262643A1, “HERBICIDAL BENZOXAZINES” (FMC CORPORATION, priority 2022, published 2026)
